Test results: patent publication US4885310A, “Anti-fungal methods and agent” (Kern; Gerald N., priority 1985, dated 1989)

Legend:
mycoses = details: cited from earlier work
Penicillium = assay: Inhibition of fungal growth on potato dextrose agar plates, Penicillium; type: cell-based
Description: (§1) FIG. 1 is a photograph of fungal cultures of Scopulariopsis, Penicillium and Aspergillus treated with various concentrations of docusate sodium from 0 concentration (the control) to 2.0 mg/ml and incubated for five days at room temperature. The nature of fungal growth required that a different experimental approach from that of Example 10 be used to determine the growth inhibition effects of docusate sodium on fungi. For these experiments potato dextrose agar plates containing different concentrations of docusate sodium were inoculated in the center of the agar with Scopulariopsis, Penicillium and Aspergillus. The cultures were then sealed with […] brand film and incubated at room temperature for five days. Since growth could not be measured by absorbance visual comparisons were made. […] Similar tests were conducted with Mucor.

[1] = test system: primary fibroblasts from human foreskin; assay: Cytotoxicity of docusate sodium in solutions free of serum, foreskin fibroblasts; type: cell-based; set-up: key: 0: Cells had normal morphology; 4+: > 90% of cells showed CTE; details: 24 h, 37° C.
Description: (§2) The cell lines used to evaluate cytotoxicity of docusate sodium were MA-104 derived from monkey kidneys, HeLa derived from human uterine carcinoma and primary fibroblasts from human foreskin. The cells were grown to confluency in 60×15 mm dishes. The cell monolayers were washed free of growth medium and 5 ml of serum-less growth medium containing docusate sodium at various concentrations was added. The cultures were incubated 24 hours at 37° C. and the cells then examined microscopically for cytotoxic effects (CTE). Controls were done in the same manner except that they were not exposed to docusate sodium.
(§3) Table 1 lists the cytotoxicity of docusate sodium with regard to selected cell lines in cell culture.

Scopulariopsis = assay: Inhibition of fungal growth on potato dextrose agar plates, Scopulariopsis; type: cell-based
Description: as §1

MA-104 [2] = assay: Cytotoxicity of docusate sodium in solutions free of serum, MA-104; type: cell-based, monkey; set-up: key: 0: Cells had normal morphology; 4+: > 90% of cells showed CTE; details: 24 h, 37° C.
Description: as §2, §3

HeLa [3] = assay: Cytotoxicity of docusate sodium in solutions free of serum, HeLa; type: cell-based, human; set-up: key: 0: Cells had normal morphology; 4+: > 90% of cells showed CTE; details: 24 h, 37° C.
Description: as §2, §3

MA-104 [4] = assay: Cytotoxicity of docusate sodium in solutions containing serum, MA-104; type: cell-based, monkey; set-up: key to cytotoxic effect (CTE): 0: Cells have normal morphology; 4+: > 90% of cells showed CTE.; ±c: less than 10% of cells showed CTE; details: for cytotoxic effect (CTE): 24 h, MA-104
Description: as §2
(§4) The same procedure that was used for Example 8 was used for this example except that the medium used for growing the cells contained 2% by volume fetal calf serum.
(§5) Table 2 lists the cytotoxic effect of docusate sodium at various concentrations in selected cell lines in the cell cultures of this Example.

[5] = cited from earlier work
HeLa [6] = assay: Cytotoxicity of docusate sodium in solutions containing serum, HeLa; type: cell-based, human; set-up: key: 0: Cells have normal morphology; 4+: > 90% of cells showed CTE.; ±c: less than 10% of cells showed CTE; details: 2% fetal calf serum, 24 h
Description: as §2, §4, §5

Mucor = assay: Inhibition of fungal growth, Mucor; type: cell-based; details: all concentrations tested
Description: The nature of fungal growth required that a different experimental approach from that of Example 10 be used to determine the growth inhibition effects of docusate sodium on fungi. For these experiments potato dextrose agar plates containing different concentrations of docusate sodium were inoculated in the center of the agar with Scopulariopsis, Penicillium and Aspergillus. The cultures were then sealed with PARAFILM brand film and incubated at room temperature for five days. Since growth could not be measured by absorbance visual comparisons were made. […] The results to date indicate that docusate sodium is fungistatic. […] Similar tests were conducted with Mucor.

Aspergillus = assay: Inhibition of fungal growth on potato dextrose agar plates, Aspergillus; type: cell-based
Description: as §1

[7] = test system: foreskin fibroblast cells; assay: Cytotoxicity of docusate sodium in solutions containing serum, foreskin fibroblasts; type: cell-based, human; set-up: key: 0: Cells have normal morphology; 4+: > 90% of cells showed CTE.; ±c: less than 10% of cells showed CTE; details: 2% fetal calf serum, 24 h
Description: as §2, §4, §5

Candida albicans = assay: Inhibition of the growth of Candida albicans in broth culture; type: cell-based; details: TSB, 30° C.
Description: Candida albicans is a yeast and is the causative agent of thrush in humans and is a cause of vaginal infections, urinary tract infections, and infections at other body sites. The growth inhibition effects of docusate sodium on C. albicans are determined in broth culture using trypticase soy broth (TSB) which is a medium which supports growth of a wide variety of microorganisms. TSB was sterilized by autoclaving and filter sterilized docusate sodium in distilled water was added to the sterile TSB at the concentrations shown in Table 3. The cultures were inoculated and incubated at 30° C. for 72 hours. Growth in the cultures was checked at 24 hour intervals.

[8] = use as food additive and stool softening agent; cited from earlier work

C[C@@H]1[C@H](O)[C@@H](C)/C=C/C=C/C=C/C=C/C=C/C=C/C=C/[C@H](O[C@@H]2O[C@H](C)[C@@H](O)[C@H](N)[C@@H]2O)C[C@@H]2O[C@](O)(C[C@@H](O)C[C@@H](O)[C@H](O)CC[C@@H](O)C[C@@H](O)CC(=O)O[C@H]1C)C[C@H](O)[C@H]2C(=O)O [amphotericin B]
toxicity (mycoses; in vivo): often exhibits some toxicity
effectiveness against superficial and cutaneous mycoses (mycoses; superficial and cutaneous mycoses): not effective for the treatment of superficial and cutaneous mycoses
effectiveness against systemic mycoses (mycoses; systemic mycoses): effective for the treatment of many, but not all, systemic mycoses

CCCCC(CC)COC(=O)CC(C(=O)OCC(CC)CCCC)S(=O)(=O)O (centres unmarked) [docusate sodium, 1,4 bis(2-ethylhexyl) sodium sulfosuccinate]
relative sensitivity of fungus (Penicillium; Penicillium versus Aspergillus and Scopulariopsis): least sensitive
growth inhibition (Penicillium; all concentrations up to 2.0 mg/ml, five days, room temperature, Penicillium): growth of fungi was inhibited at all concentrations
toxicity (CTE) ([1]; 0.01 mg/ml): 0
toxicity (CTE) ([1]; 0.05 mg/ml): 4+ (> 90% of cells showed CTE.)
toxicity (CTE) ([1]; 0.1 mg/ml): 4+ (> 90% of cells showed CTE.)
toxicity (CTE) ([1]; 0.2 mg/ml): 4+ (> 90% of cells showed CTE.)
relative sensitivity of fungus (Scopulariopsis; Scopulariopsis versus Penicillium): more sensitive
growth inhibition (Scopulariopsis; all concentrations up to 2.0 mg/ml, five days, room temperature, Scopulariopsis): growth of fungi was inhibited at all concentrations
sensitivity of growing tips of fungal mycelia (microscopic examination) (Scopulariopsis; stated for the fungal colonies of FIG. 1): growing tips of the fungal mycelia (filaments) are sensitive
fungistatic nature of effect (Scopulariopsis; stated for the fungi of FIG. 1): fungistatic
toxicity (CTE) (MA-104 [2]; 0.01 mg/ml): 0
toxicity (CTE) (MA-104 [2]; 0.05 mg/ml): 4+ (> 90% of cells showed CTE.)
toxicity (CTE) (MA-104 [2]; 0.1 mg/ml): 4+ (> 90% of cells showed CTE.)
toxicity (CTE) (MA-104 [2]; 0.2 mg/ml): 4+ (> 90% of cells showed CTE.)
toxicity (CTE) (HeLa [3]; 0.01 mg/ml): 0
toxicity (CTE) (HeLa [3]; 0.05 mg/ml): 4+ (> 90% of cells showed CTE.)
toxicity (CTE) (HeLa [3]; 0.1 mg/ml): 4+ (> 90% of cells showed CTE.)
toxicity (CTE) (HeLa [3]; 0.2 mg/ml): 4+ (> 90% of cells showed CTE.)
cytotoxic effect (CTE) (MA-104 [4]; 0.01 mg/ml, 2% fetal calf serum): 0
cytotoxic effect (CTE) (MA-104 [4]; 0.02 mg/ml, 2% fetal calf serum): 0
cytotoxic effect (CTE) (MA-104 [4]; 0.03 mg/ml, 2% fetal calf serum): 0
cytotoxic effect (CTE) (MA-104 [4]; 0.04 mg/ml, 2% fetal calf serum): 0
effect of serum on cytotoxicity (MA-104 [4]; 2% fetal calf serum vs serum-free, stated for the cells of Table 2): presence of serum reduced the cytotoxicity
relative sensitivity of MA-104 cells (MA-104 [4]; 2% fetal calf serum, versus HeLa and foreskin fibroblast cells): less sensitive
solubility in organic solvents ([5]; organic solvents such as alcohol): freely soluble
solubility in water ([5]; water): slowly soluble in water to a limited extent
cytotoxic effect (CTE) (HeLa [6]; 0.02 mg/ml): 0
cytotoxic effect (CTE) (HeLa [6]; 0.03 mg/ml): ±c (less than 10% of cells showed CTE.)
cytotoxic effect (CTE) (HeLa [6]; 0.04 mg/ml): 4+ (> 90% of cells showed CTE.)
growth inhibition (Mucor): growth was inhibited at all concentrations of docusate sodium tested
relative sensitivity of fungus (Aspergillus; Aspergillus versus Penicillium): more sensitive
growth inhibition (Aspergillus; all concentrations up to 2.0 mg/ml, five days, room temperature, Aspergillus): growth of fungi was inhibited at all concentrations
cytotoxic effect (CTE) ([7]; 0.01 mg/ml): 0
cytotoxic effect (CTE) ([7]; 0.02 mg/ml): ±c (less than 10% of cells showed CTE.)
cytotoxic effect (CTE) ([7]; 0.03 mg/ml): 4+ (> 90% of cells showed CTE.)
cytotoxic effect (CTE) ([7]; 0.04 mg/ml): 4+ (> 90% of cells showed CTE.)
Growth recorded as absorbance at 540 nm (Candida albicans; 0.06 mg/ml, 0 h): 0.185
Growth recorded as absorbance at 540 nm (Candida albicans; 0.06 mg/ml, 24 h): 0.610
Growth recorded as absorbance at 540 nm (Candida albicans; 0.06 mg/ml, 48 h): 1.10
Growth recorded as absorbance at 540 nm (Candida albicans; 0.06 mg/ml, 72 h): 0.920
Growth recorded as absorbance at 540 nm (Candida albicans; 0.12 mg/ml, 0 h): 0.230
Growth recorded as absorbance at 540 nm (Candida albicans; 0.12 mg/ml, 24 h): 0.440
Growth recorded as absorbance at 540 nm (Candida albicans; 0.12 mg/ml, 48 h): 0.700
Growth recorded as absorbance at 540 nm (Candida albicans; 0.12 mg/ml, 72 h): 0.950
Growth recorded as absorbance at 540 nm (Candida albicans; 0.25 mg/ml, 0 h): 0.220
Growth recorded as absorbance at 540 nm (Candida albicans; 0.25 mg/ml, 24 h): 0.345
Growth recorded as absorbance at 540 nm (Candida albicans; 0.25 mg/ml, 48 h): 0.600
Growth recorded as absorbance at 540 nm (Candida albicans; 0.25 mg/ml, 72 h): 0.720
Growth recorded as absorbance at 540 nm (Candida albicans; 0.5 mg/ml, 0 h): 0.240
Growth recorded as absorbance at 540 nm (Candida albicans; 0.5 mg/ml, 24 h): 0.315
Growth recorded as absorbance at 540 nm (Candida albicans; 0.5 mg/ml, 48 h): 0.420
Growth recorded as absorbance at 540 nm (Candida albicans; 0.5 mg/ml, 72 h): 0.730
Growth recorded as absorbance at 540 nm (Candida albicans; 1.0 mg/ml, 0 h): 0.290
Growth recorded as absorbance at 540 nm (Candida albicans; 1.0 mg/ml, 24 h): 0.310
Growth recorded as absorbance at 540 nm (Candida albicans; 1.0 mg/ml, 48 h): 0.450
Growth recorded as absorbance at 540 nm (Candida albicans; 1.0 mg/ml, 72 h): 0.610
Growth recorded as absorbance at 540 nm (Candida albicans; 2.0 mg/ml, 0 h): 0.320
Growth recorded as absorbance at 540 nm (Candida albicans; 2.0 mg/ml, 24 h): 0.470
Growth recorded as absorbance at 540 nm (Candida albicans; 2.0 mg/ml, 48 h): 0.620
Growth recorded as absorbance at 540 nm (Candida albicans; 2.0 mg/ml, 72 h): 0.780
systemic or local concentration on a cellular level [8]: do not provide a systemic or local concentration of from about 0.01 mg to about 0.2 mg of docusate sodium per ml on a cellular level

COC1=CC(=O)C[C@@H](C)[C@]12Oc1c(Cl)c(OC)cc(OC)c1C2=O [griseofulvin]
effectiveness against mycoses (mycoses; requires prolonged administration of weeks or months): effective only for superficial and subcutaneous mycoses
